Measured values as given in ChEMBL document CHEMBL3244130, “A manual method for applying the Hansch approach to drug design” (J Med Chem, 1977).
One block for each compound: values may come before it.

Tests used:
[1] = Inhibition of carbonic anhydrase (unknown origin); settings: Homo sapiens
Escherichia coli = experiment: Antibacterial activity against Escherichia coli; format: functional
Rattus norvegicus [2] = species: Rattus norvegicus; experiment: Hypoglycemic activity in rat assessed as change in blood glucose level after 4 hrs; format: functional; design: concentration or dose not given beside the values
Rattus norvegicus [3] = experiment: Antiinflammatory activity in rat pleurisy model assessed as 10X ratio of mean pleural exudate volumes at 1 mmol/kg, po relative to 1 mmol/kg aspirin; format: functional
Plasma = experiment: Fibrinolytic activity in human plasma assessed as dissolution of standard clot measured with in 24 hrs; format: functional
[4] = Uncoupling activity of oxidative phosphorylation in rat liver mitochondria; format: functional
[5] = Inhibition of alcohol dehydrogenase (unknown origin) assessed as dissociation constant for the complex of enzyme and DPNH; format: protein assay; settings: Homo sapiens
Oryctolagus cuniculus = species: Oryctolagus cuniculus; experiment: Reversible inhibition of guanine deaminase in rabbit liver at pH 7.4

- log1/Ki [1]: 1.4
SMILES: NS(=O)(=O)c1ccc(Cl)c(Cl)c1

- log(1/MIC) (Escherichia coli): 5.4
SMILES: CC(C)c1ccc(C(=O)NS(=O)(=O)c2ccc(N)cc2)cc1

- log1/Ki [1]: 0.35
SMILES: COc1ccc(S(N)(=O)=O)cc1

SMILES: O=C(C=P(c1ccccc1)(c1ccccc1)c1ccccc1)c1ccccc1
- Activity (Rattus norvegicus [2]): -24%

SMILES: O=C(O)CCn1nnc(-c2ccccc2)n1
- Activity_index (Rattus norvegicus [3]): 8.2

- log(1/MIC) (Escherichia coli): 5.1
SMILES: Nc1ccc(S(=O)(=O)NC(=O)c2ccc(Cl)cc2)cc1

- log(1/MIC) (Escherichia coli): 4.65
SMILES: Nc1ccc(S(=O)(=O)NC(=O)c2cccc(C(F)(F)F)c2)cc1

SMILES: Cc1ccc(C#C[C@H]2C[C@@H]2C(=O)O)cc1
- log(1/C) (Plasma): 1.82

SMILES: Cc1ccc(C2C(=O)c3ccccc3C2=O)cc1
- log(1/C50) [4]: 4.1

- log K [5]: -2.72
SMILES: NC(=O)c1ccccc1

SMILES: O=C1c2ccccc2C(=O)C1c1ccc(Cl)cc1
- log(1/C50) [4]: 4.2

SMILES: COc1ccc(C(=O)C=P(c2ccccc2)(c2ccccc2)c2ccccc2)cc1
- Activity (Rattus norvegicus [2]): -4%

SMILES: COc1ccc(-c2nnn(CCC(=O)O)n2)cc1
- Activity_index (Rattus norvegicus [3]): 4.9

SMILES: O=C(O)CCn1nnc(-c2cccc(C(F)(F)F)c2)n1
- Activity_index (Rattus norvegicus [3]): 5.7

SMILES: O=C(C=P(c1ccccc1)(c1ccccc1)c1ccccc1)c1cccc(Cl)c1
- Activity (Rattus norvegicus [2]): -42%

- log(1/C) (Oryctolagus cuniculus): 7.01
SMILES: CCOc1ccc(-n2cnc3c(O)nc(N)nc32)cc1

SMILES: O=C(O)CCn1nnc(-c2ccc(Cl)c(Cl)c2)n1
- Activity_index (Rattus norvegicus [3]): 6.2

SMILES: O=C1c2ccccc2C(=O)C1c1ccccc1
- log(1/C50) [4]: 3.74

- log1/Ki [1]: 0.22
SMILES: NS(=O)(=O)c1ccccc1

SMILES: Cc1cccc(-c2nnn(CCC(=O)O)n2)c1
- Activity_index (Rattus norvegicus [3]): 7.9

SMILES: CC(C)c1ccc(C2C(=O)c3ccccc3C2=O)cc1
- log(1/C50) [4]: 4.87

- log1/Ki [1]: 0.42
SMILES: Cc1ccc(S(N)(=O)=O)cc1

SMILES: Cc1ccc(-c2nnn(CCC(=O)O)n2)cc1
- Activity_index (Rattus norvegicus [3]): 3.1

- log(1/MIC) (Escherichia coli): 5.25
SMILES: COc1ccc(C(=O)NS(=O)(=O)c2ccc(N)cc2)cc1C

- log K [5]: -1.7
SMILES: CC(C)c1ccc(C(N)=O)cc1

- log(1/MIC) (Escherichia coli): 5.18
SMILES: CCCc1ccc(C(=O)NS(=O)(=O)c2ccc(N)cc2)cc1

- log K [5]: -1.93
SMILES: NC(=O)c1ccc(Cl)cc1

SMILES: COc1ccc(C2C(=O)c3ccccc3C2=O)cc1
- log(1/C50) [4]: 3.75

- log(1/MIC) (Escherichia coli): 5.62
SMILES: CCc1ccc(C(=O)NS(=O)(=O)c2ccc(N)cc2)cc1

- log1/Ki [1]: 1.85
SMILES: NS(=O)(=O)c1ccc([N+](=O)[O-])c(C(F)(F)F)c1

SMILES: O=C(O)[C@H]1C[C@@H]1C#Cc1ccc(Cl)cc1
- log(1/C) (Plasma): 1.92

SMILES: O=C(O)CCn1nnc(-c2cccc(Br)c2)n1
- Activity_index (Rattus norvegicus [3]): 11.2

SMILES: O=C(O)CCn1nnc(-c2cccc(Cl)c2)n1
- Activity_index (Rattus norvegicus [3]): 11.2

- log K [5]: -2.2
SMILES: COc1ccc(C(N)=O)cc1

- log(1/MIC) (Escherichia coli): 4.05
SMILES: N#Cc1ccc(C(=O)NS(=O)(=O)c2ccc(N)cc2)cc1

- log1/Ki [1]: 0.72
SMILES: NS(=O)(=O)c1ccc(Cl)cc1

- log(1/MIC) (Escherichia coli): 4.5
SMILES: Nc1ccc(S(=O)(=O)NC(=O)c2ccc([N+](=O)[O-])cc2)cc1

- log(1/C) (Oryctolagus cuniculus): 7.25
SMILES: Nc1nc(O)c2ncn(-c3ccc(OCCCc4ccccc4)cc3)c2n1

SMILES: O=C(C=P(c1ccccc1)(c1ccccc1)c1ccccc1)c1ccc(Cl)cc1
- Activity (Rattus norvegicus [2]): -21%

SMILES: O=C(O)[C@H]1C[C@@H]1C#Cc1ccccc1
- log(1/C) (Plasma): 1.7

- log(1/MIC) (Escherichia coli): 5.4
SMILES: Cc1ccc(C(=O)NS(=O)(=O)c2ccc(N)cc2)cc1

- log(1/MIC) (Escherichia coli): 5.25
SMILES: Nc1ccc(S(=O)(=O)NC(=O)c2ccccc2)cc1 [SULFABENZAMIDE]

SMILES: O=C(O)CCn1nnc(-c2cc(Cl)cc(Cl)c2)n1
- Activity_index (Rattus norvegicus [3]): 11.2

SMILES: Nc1cccc(-c2nnn(CCC(=O)O)n2)c1
- Activity_index (Rattus norvegicus [3]): 0.3

SMILES: CC(C)(C)c1ccc(C2C(=O)c3ccccc3C2=O)cc1
- log(1/C50) [4]: 5.03

SMILES: Cc1cccc(C(=O)C=P(c2ccccc2)(c2ccccc2)c2ccccc2)c1
- Activity (Rattus norvegicus [2]): -30%

SMILES: O=C(O)CCn1nnc(-c2ccc(Cl)cc2)n1
- Activity_index (Rattus norvegicus [3]): 5.9

SMILES: Cc1ccc(C(=O)C=P(c2ccccc2)(c2ccccc2)c2ccccc2)cc1
- Activity (Rattus norvegicus [2]): -2%

SMILES: O=C(C=P(c1ccccc1)(c1ccccc1)c1ccccc1)c1ccc(Cl)c(Cl)c1
- Activity (Rattus norvegicus [2]): 2%

- log(1/MIC) (Escherichia coli): 5.4
SMILES: Cc1cccc(C(=O)NS(=O)(=O)c2ccc(N)cc2)c1

- log K [5]: -1.78
SMILES: Cc1ccc(C(N)=O)cc1

SMILES: COc1ccc(C#C[C@H]2C[C@@H]2C(=O)O)cc1
- log(1/C) (Plasma): 1.7

- log(1/MIC) (Escherichia coli): 5.4
SMILES: COc1ccc(C(=O)NS(=O)(=O)c2ccc(N)cc2)cc1

SMILES: O=C(C=P(c1ccccc1)(c1ccccc1)c1ccccc1)c1cccc(C(F)(F)F)c1
- Activity (Rattus norvegicus [2]): -22%

SMILES: COc1cccc(C(=O)C=P(c2ccccc2)(c2ccccc2)c2ccccc2)c1
- Activity (Rattus norvegicus [2]): -42%
